Results taken from US8686022B2, “7-(piperazine-1-ymethyl)-1H-indole-2-carboxylic acid (phenyl)-amide derivatives and allied compounds as p38 MAP kinase inhibitors for the treatment of respiratory diseases” (Boehringer Ingelheim International GmbH, priority 2008, dated 2014).
Values after ≈ are worked out from the molar mass of the structure shown. Values joined by “and” are separate entries in the source; they are usually repeats but may differ in a detail not shown here. Equal values may be shown once.

Experiments:
p38 MAP-kinase = p38 MAP-kinase (Homo sapiens, UniProt Q16539); experiment: p38 MAP-kinase enzymatic assay (phosphorylation of GST-tagged ATF2, chemoluminescence); assay type: biochemical; conditions: inhibitor concentration 1 μM, activated p38 MAP-kinase 1 nM, ATP 100 μM; for inhibition at 1 µM: read-out: p38 (% Inh @ 1 μM)
Procedure: In this, the amount of a substrate phosphorylated by the kinase is quantified. The test is carried out as follows:
The kinase reaction is carried out in the presence of HEPES (20 mM, pH 7), MgCl2 (10 mM), DTT (1 mM) and TWEEN20 (0.01%). First, dimethylsulphoxide or inhibitor (final concentration: 1 μM) dissolved in dimethylsulphoxide are placed in a reaction vessel. Then the activated p38 MAP-kinase (final concentration 1 nM) is added and the mixture is incubated for 4 h at ambient temperature. Then a mixture of substrate (GST-tagged ATF2) and ATP is added and everything is incubated together for a further hour (final concentration ATP: 100 μM; final concentration ATF2: 10 nM).
The concentration of phosphorylated ATF2 is quantified by chemoluminescence-induced light emission. For this, a glutathione donor bead (final concentration: 5 μg/ml) which binds to the gluthathione on the ATF2 and phospho-ATF2 antibodies are added to the reaction mixture (final concentration: 3 nM; this binds the phosphate group added by the kinase reaction) to which a Protein A Acceptor Bead (final concentration: 5 μg/ml) binds. These components are dissolved in a buffer which contains 20 mM HEPES pH 7.0, 200 mM NaCL, 80 mM EDTA as well as 0.3% BSA. This reaction mixture is incubated in the dark for 1 hour at ambient temperature. When these beads come physically close, visible light is emitted which is measured in a photometer at 520-620 nm.
To determine the inhibitory activity of the compounds according to the invention a calculation is made to determine the percentage by which the kinase activity is inhibited at a fixed inhibitor concentration of 1 μM. The maximum activity is determined by non-inhibited kinase. The minimum activity or nonspecific background activity is determined using a reaction mixture without kinase.
Table 2 summarises the degree of inhibition of the enzyme p38 MAP-kinase—as described hereinbefore—mediated by the compounds according to the invention detailed in the section “Preparation of the final compounds”.

cytochrome P450 2C9 = cytochrome P450 2C9 (Homo sapiens, UniProt P11712); experiment: Determining the cyp2C9 activity (O-demethylation of [O-methyl-14C]-naproxen); assay type: in vitro ADME; conditions: human recombinant cytochrome P450 2C9; 37° C.; <0.4 μM when inhibition >50% at lowest concentration; read-out: CYP 2C9 IC50
Procedure: Determining the cyp2C9 Activity:
The assay is carried out in a robot system with 96-well plates. The final incubation volume is 200 μl of TRIS-Puffer (0.1 M), magnesium chloride (5 mM), recombinant protein (40 pmol/ml), ^14C-labelled naproxen (80 μM) and the test compound in one of 4 concentrations (50 μM, 10 μM, 2 μM and 0.4 μM) as a duplicate in each case. After a short preincubation period the reactions are started by the addition of the cofactor (NADPH, 1 mM) and ended after 15 min by the addition of 50 μl of a 10% aqueous trichloroacetic acid solution. One aliquot of the incubate is transferred onto a 96-well solid phase extraction plate and extracted. The ^14C-formaldehyde formed during the reaction is not retained on the solid phase extraction plate and is thus separated from the unmetabolised substrate by washing the solid phase extraction plate with water. One aliquot of the eluate is transferred into a well plate suitable for liquid scintillation. […] The IC50 is determined by the least squares method using the following formula: control activity=(100% control activity/(1+(I/IC50)S))−B where I=Inhibitor concentration S=Pitch B=Background activity
When the inhibition of the reaction is >50% even at the lowest concentration of the test compound, the IC50 is given as <0.4 μM.

[1] = Determining the solubility (saturated solution in McIlvaine buffer pH 7.4, UV spectroscopy); assay type: physicochemical; conditions: pH 7.4, aqueous buffer, thermodynamic from solid, shaken 2 hours, 0.75 mg solid in 0.75 ml
Procedure: Determining the Solubility:
Saturated solutions are prepared in suitable well dishes by adding 0.75 ml of a McIlvaine buffer (pH 7.4) to the well in question containing 0.75 mg of solid of an active substance. The wells are shaken for 2 hours and then filtration is carried out through a suitable filter membrane (typically polytetrafluoroethylene with a pore size of 0.45 μm). Filter absorption is prevented by discarding the first few drops of filtrate. The amount of active substance dissolved is determined by UV spectroscopy.

p38 MAP-kinase, sequence (Q16539 whole entry): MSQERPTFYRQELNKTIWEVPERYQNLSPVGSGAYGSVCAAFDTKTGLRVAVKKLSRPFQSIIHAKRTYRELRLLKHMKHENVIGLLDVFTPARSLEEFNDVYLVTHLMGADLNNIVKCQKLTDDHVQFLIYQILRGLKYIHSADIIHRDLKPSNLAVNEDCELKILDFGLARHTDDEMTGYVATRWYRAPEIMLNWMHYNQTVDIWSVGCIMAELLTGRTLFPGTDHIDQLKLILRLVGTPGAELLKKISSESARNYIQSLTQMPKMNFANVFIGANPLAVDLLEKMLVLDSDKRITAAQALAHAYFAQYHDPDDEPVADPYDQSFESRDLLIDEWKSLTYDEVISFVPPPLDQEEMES
cytochrome P450 2C9, sequence (P11712 whole entry): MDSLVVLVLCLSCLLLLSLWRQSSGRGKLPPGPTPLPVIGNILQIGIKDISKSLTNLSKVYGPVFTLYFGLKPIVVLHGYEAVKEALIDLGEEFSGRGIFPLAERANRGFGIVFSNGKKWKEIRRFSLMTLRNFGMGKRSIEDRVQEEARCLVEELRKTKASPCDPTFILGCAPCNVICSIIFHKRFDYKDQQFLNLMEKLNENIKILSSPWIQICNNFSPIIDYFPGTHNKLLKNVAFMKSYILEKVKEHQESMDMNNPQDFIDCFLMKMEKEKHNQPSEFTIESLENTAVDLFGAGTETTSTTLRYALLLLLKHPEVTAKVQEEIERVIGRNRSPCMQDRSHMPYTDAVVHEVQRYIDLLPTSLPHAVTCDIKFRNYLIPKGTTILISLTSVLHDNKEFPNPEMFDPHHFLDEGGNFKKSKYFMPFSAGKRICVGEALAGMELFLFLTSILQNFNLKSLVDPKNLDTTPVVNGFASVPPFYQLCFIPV

Row | SMILES | inhibition at 1 µM (p38 MAP-kinase) | IC50 (cytochrome P450 2C9) | solubility at 2 h [1] | p38 (% Inh @ 1 μM) (p38 MAP-kinase)
1 | COc1c(NC(=O)c2cc3cccc(CN4CCN(C(=O)[C@@H]5CCCN5C)CC4)c3n2C)cc(CC(C)C)cc1NS(C)(=O)=O [8(2), (S)-1-methyl-7-[4-(1-methyl-pyrrolidine-2-carbonyl)-piperazin-1-ylmethyl]-1H-indole-2-carboxylic acid-(5-isobutyl-3-methanesulphonylamino-2-methoxy-phenyl)-amide] | 99.5% | 5770 nM | 120 µg/mL (≈ 188 µM) | –
2 | COc1c(NC(=O)c2cc3cccc(CC4CCN(C(=O)[C@H]5CCCN5C)CC4)c3n2C)cc(C(C)(C)C)cc1NS(C)(=O)=O [1(6), (R)-1-methyl-7-[1-(1-methyl-pyrrolidine-2-carbonyl)-piperidin-4-ylmethyl]-1H-indole-2-carboxylic acid(5-tert-butyl-3-methanesulphonylamino-2-methoxy-phenyl)-amide] | 99.3% | 1430 nM | 560 µg/mL (≈ 878 µM) | –
3 | COc1c(NC(=O)c2cc3cccc(CN4CCN(C(=O)[C@@H]5CCCN5C)CC4)c3n2C)cc(C(C)(C)C)cc1C(=O)N(C)C [Example 11, (S)-1-methyl-7-[4-(1-methyl-pyrrolidine-2-carbonyl)-piperazin-1-ylmethyl]-1H-indole-2-carboxylic acid-(5-tert-butyl-3-dimethylcarbamoyl-2-methoxy-phenyl)-amide] | 92% | 5900 nM | 450 µg/mL (≈ 730 µM) | –
4 | COc1c(NC(=O)c2cc3cccc(CN4CCN(C(=O)N5CC[C@H](N(C)C)C5)CC4)c3n2C)cc(C(C)(C)C)cc1NS(C)(=O)=O [2(1), (S)-7-[4-(3-dimethylamino-pyrrolidine-1-carbonyl)-piperazin-1-ylmethyl]-1-methyl-1H-indole-2-carboxylic acid (5-tert-butyl-3-methanesulphonylamino-2-methoxy-phenyl)-amide] | 99% | 880 nM | 28 µg/mL (≈ 41.9 µM) | –
5 | COc1c(NC(C)=O)cc(C(C)(C)C)cc1NC(=O)c1cc2cccc(CN3CCN(C(=O)[C@@H]4CCCN4C)CC3)c2n1C [12(2), (S)-1-methyl-7-[4-(1-methyl-pyrrolidine-2-carbonyl)-piperazin-1-ylmethyl]-1H-indole-2-carboxylic acid-(3-acetylamino-5-tert-butyl-2-methoxy-phenyl)-amide] | 98.2% | 3460 nM | 630 µg/mL (≈ 1050 µM) | –
6 | COc1c(NC(=O)c2cc3cccc(CN4CCN(C(=O)[C@H]5CCN(C)C5)CC4)c3n2C)cc(C(C)(C)C)cc1NS(C)(=O)=O [Example 5, (S)-1-methyl-7-[4-(1-methyl-pyrrolidine-3-carbonyl)-piperazin-1-ylmethyl]-1H-indole-2-carboxylic acid (5-tert-butyl-3-methanesulphonylamino-2-methoxy-phenyl)-amide] | 98.6% | 1150 nM | 620 µg/mL (≈ 971 µM) | –
7 | COc1c(NC(=O)c2cc3cccc(CN4CCN(C(=O)[C@@H]5C[C@@H](O)CN5C)CC4)c3n2C)cc(C(C)(C)C)cc1NS(C)(=O)=O [1(8), 7-[4-((2S,4R)-4-hydroxy-1-methyl-pyrrolidine-2-carbonyl)-piperazin-1-ylmethyl]-1-methyl-1H-indole-2-carboxylic acid(5-tert-butyl-3-methanesulphonylamino-2-methoxy-phenyl)-amide] | 98.9% | 1020 nM | 84 µg/mL (≈ 128 µM) | –
8 | COc1c(NC(=O)c2cc3cccc(CN4CCN(C(=O)C5CN(C)C5)CC4)c3n2C)cc(C(C)(C)C)cc1NS(C)(=O)=O [1(2), 1-methyl-7-[4-(1-methyl-azetidine-3-carbonyl)-piperazin-1-ylmethyl]-1H-indole-2-carboxylic acid(5-tert-butyl-3-methanesulphonylamino-2-methoxy-phenyl)-amide] | 98.5% | 1340 nM | 59 µg/mL (≈ 94.4 µM) | –
9 | COc1c(NC(=O)c2cc3cccc(CN4CCN(C(=O)CN5CC[C@@H](N(C)C)C5)CC4)c3n2C)cc(C(C)(C)C)cc1NS(C)(=O)=O [6(2), (R)-7-{4-[2-(3-dimethylamino-pyrrolidin-1-yl)-acetyl]-piperazin-1-ylmethyl}-1-methyl-1H-indole-2-carboxylic acid-(5-tert-butyl-3-methanesulphonylamino-2-methoxy-phenyl)-amide] | 98.9% | 700 nM | > 1000 µg/mL | –
10 | COc1c(NC(=O)c2cc3cccc(CN4CCC(C(=O)N5CC[C@H](N(C)C)C5)CC4)c3n2C)cc(C(C)(C)C)cc1NS(C)(=O)=O [1(23), (S)-7-[4-(3-dimethylamino-pyrrolidine-1-carbonyl)-piperidin-1-ylmethyl]-1-methyl-1H-indole-2-carboxylic acid-(5-tert-butyl-3-methanesulphonylamino-2-methoxy-phenyl)-amide] | 97% | 1770 nM | 280 µg/mL (≈ 420 µM) | –
11 | COc1c(NC(=O)c2cc3cccc(CN4CCN(C(=O)C(C)N5CCCC5)CC4)c3n2C)cc(C(C)(C)C)cc1NS(C)(=O)=O (stereo not drawn) [1(13), 1-methyl-7-[4-(2-pyrrolidin-1-yl-propionyl)-piperazin-1-ylmethyl]-1H-indole-2-carboxylic acid-(5-tert-butyl-3-methanesulphonylamino-2-methoxy-phenyl)-amide] | 98.7% | 560 nM | 40 µg/mL (≈ 61.3 µM) | –
12 | COc1c(NC(=O)c2cc3cccc(CN4CCCN(C(=O)[C@@H]5CCCN5C)CC4)c3n2C)cc(C(C)(C)C)cc1NS(C)(=O)=O [Example 8, 1-methyl-7-[4-((2S)-1-methyl-pyrrolidine-2-carbonyl)-[1,4]diazepan-1-ylmethyl]-1H-indole-2-carboxylic acid-(5-tert-butyl-3-methanesulphonylamino-2-methoxy-phenyl)-amide] | 97.3% | 1670 nM | 280 µg/mL (≈ 429 µM) | –
13 | COc1c(NC(=O)c2cc3cccc(CN4CCCN(C(=O)[C@@H]5CCN(C)C5)CC4)c3n2C)cc(C(C)(C)C)cc1NS(C)(=O)=O [5(2), (R)-1-methyl-7-[4-(1-methyl-pyrrolidine-3-carbonyl)-[1,4]diazepan-1-ylmethyl]-1H-indole-2-carboxylic acid-(5-tert-butyl-3-methanesulphonylamino-2-methoxy-phenyl)-amide] | 98% | 990 nM | 160 µg/mL (≈ 245 µM) | –
14 | COc1c(NC(=O)c2cc3cccc(CN4CCN(C(=O)[C@@H]5CCCN5C)CC4)c3n2C)cc(C(C)(C)C)cc1NC(=O)C(C)C [12(3), (S)-1-methyl-7-[4-(1-methyl-pyrrolidine-2-carbonyl)-piperazin-1-ylmethyl]-1H-indole-2-carboxylic acid-(5-tert-butyl-3-isobutyrylamino-2-methoxy-phenyl)-amide] | 97.3% | 2150 nM | 91 µg/mL (≈ 144 µM) | –
15 | COc1c(NC(=O)c2cc3cccc(CN4CCN(C(=O)[C@@H]5CCCN5C)CC4)c3n2C)cc(C(C)(C)C)cc1[S+](C)[O-] (stereo partly drawn) [11(3), 1-methyl-7-[4-((2S)-1-methyl-pyrrolidine-2-carbonyl)-piperazin-1-ylmethyl]-1H-indole-2-carboxylic acid-(5-tert-butyl-3-methanesulphinyl-2-methoxy-phenyl)-amide] | 98.6% | 780 nM and 870 nM and 560 nM | – | 99.0% and 98.7%
